Assay results published in ChEMBL document CHEMBL1201862, “PubChem BioAssay data set” (2004).
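Tested at 5 concentrations; 48 h exposure; 96-well plates; endpoints linearly interpolated, else capped at highest concentration. GI50 is the concentration that inhibits growth by half.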 Active and inactive are the calls of the source. Cut-off read from the data, not from the text of the source: active = GI50 up to about 1.1 µM and inactive = higher.

Legend:
Test in all cases: NCI tumour cell line growth inhibition, 48 h
SF-295 = tested on: SF-295
MDA-MB-231 = tested on: MDA-MB-231
Hs-578T = tested on: Hs-578T
HOP-92 = tested on: HOP-92
M14 = tested on: M14
T47D = tested on: T47D
786-0 = tested on: 786-0
SK-MEL-2 = tested on: SK-MEL-2
RXF 393 = tested on: RXF 393
U-251 = tested on: U-251
MDA-MB-435 = tested on: MDA-MB-435
TK-10 = tested on: TK-10
NCI-H522 = tested on: NCI-H522
HCC 2998 = tested on: HCC 2998
MOLT-4 = tested on: MOLT-4
PC-3 = tested on: PC-3
ACHN = tested on: ACHN
LOX IMVI = tested on: LOX IMVI
OVCAR-5 = tested on: OVCAR-5
OVCAR-4 = tested on: OVCAR-4
COLO 205 = tested on: COLO 205
A498 = tested on: A498
RPMI-8226 = tested on: RPMI-8226
NCI-H23 = tested on: NCI-H23
HOP-62 = tested on: HOP-62
NCI-H226 = tested on: NCI-H226
K562 = tested on: K562
KM12 = tested on: KM12
MDA-N = tested on: MDA-N
IGROV-1 = tested on: IGROV-1
UO-31 = tested on: UO-31
SK-OV-3 = tested on: SK-OV-3
OVCAR-8 = tested on: OVCAR-8
SK-MEL-5 = tested on: SK-MEL-5
UACC-62 = tested on: UACC-62
SF-539 = tested on: SF-539
HCT-116 = tested on: HCT-116
SW-620 = tested on: SW-620
BT-549 = tested on: BT-549
CAKI-1 = tested on: CAKI-1
SNB-19 = tested on: SNB-19
HCT-15 = tested on: HCT-15
NCI-H460 = tested on: NCI-H460
MCF7 = tested on: MCF7
HL-60 = tested on: HL-60
SNB-75 = tested on: SNB-75
SN12C = tested on: SN12C
DU-145 = tested on: DU-145
EKVX = tested on: EKVX
SR = tested on: SR
UACC-257 = tested on: UACC-257
NCI/ADR-RES = tested on: NCI/ADR-RES
SF-268 = tested on: SF-268
CCRF-CEM = tested on: CCRF-CEM
OVCAR-3 = tested on: OVCAR-3
A549 = tested on: A549
Malme-3M = tested on: Malme-3M
HT-29 = tested on: HT-29
SK-MEL-28 = tested on: SK-MEL-28

Measured: GI50

CC1(C)OC2OC(C(=O)c3ccccc3)C3OC(C)(C)OC3C2O1 (stereo not drawn)
> 100 µM: HCT-15
inactive: SF-295 > 100 µM | MDA-MB-231 > 100 µM | Hs-578T > 100 µM | HOP-92 > 100 µM | M14 > 100 µM | T47D > 100 µM | 786-0 > 100 µM | SK-MEL-2 > 100 µM | RXF 393 > 100 µM | U-251 > 100 µM | MDA-MB-435 > 100 µM | TK-10 > 100 µM | NCI-H522 > 100 µM | HCC 2998 > 100 µM | MOLT-4 > 100 µM | PC-3 > 100 µM | ACHN > 100 µM | LOX IMVI > 100 µM | OVCAR-5 > 100 µM | OVCAR-4 > 100 µM | COLO 205 > 100 µM | A498 > 100 µM | RPMI-8226 > 100 µM | NCI-H23 > 100 µM | HOP-62 > 100 µM | NCI-H226 > 100 µM | K562 > 100 µM | KM12 > 100 µM | MDA-N > 100 µM | IGROV-1 > 100 µM | UO-31 > 100 µM | SK-OV-3 > 100 µM | OVCAR-8 > 100 µM | SK-MEL-5 > 100 µM | UACC-62 > 100 µM | SF-539 > 100 µM | HCT-116 > 100 µM | SW-620 > 100 µM | BT-549 > 100 µM | CAKI-1 > 100 µM | SNB-19 > 100 µM | NCI-H460 > 100 µM | MCF7 > 100 µM | HL-60 > 100 µM | SNB-75 > 100 µM | SN12C > 100 µM | DU-145 > 100 µM | EKVX > 100 µM | SR > 100 µM | UACC-257 > 100 µM | NCI/ADR-RES > 100 µM | SF-268 > 100 µM | CCRF-CEM > 100 µM | OVCAR-3 > 100 µM

O=[N+]([O-])C(=C/c1cccc2ccccc12)/C(=C\c1cccc2ccccc12)[N+](=O)[O-]
1.9 µM: HCT-15
inactive: SF-295 2.58 µM | MDA-MB-231 2.1 µM | Hs-578T 3.01 µM | HOP-92 1.92 µM | M14 2.19 µM | T47D 3.07 µM | 786-0 1.77 µM | SK-MEL-2 9.73 µM | RXF 393 1.99 µM | U-251 1.95 µM | MDA-MB-435 2.28 µM | TK-10 2.17 µM | NCI-H522 1.37 µM | HCC 2998 2.42 µM | PC-3 5.24 µM | ACHN 2.13 µM | LOX IMVI 1.61 µM | A549 15.3 µM | OVCAR-5 3.66 µM | OVCAR-4 2.91 µM | COLO 205 3.44 µM | A498 19.3 µM | RPMI-8226 2.56 µM | NCI-H23 1.98 µM | HOP-62 2.74 µM | NCI-H226 4.85 µM | K562 3.08 µM | KM12 4.23 µM | MDA-N 2.62 µM | IGROV-1 1.79 µM | UO-31 1.85 µM | SK-OV-3 6.08 µM | Malme-3M 2.07 µM | OVCAR-8 2.42 µM | SK-MEL-5 2.9 µM | UACC-62 1.71 µM | SF-539 2.21 µM | HCT-116 2.49 µM | SW-620 1.89 µM | BT-549 2.05 µM | CAKI-1 2.2 µM | SNB-19 4.51 µM | HT-29 2.21 µM | NCI-H460 2.34 µM | MCF7 2.99 µM | SNB-75 6.95 µM | SN12C 2.34 µM | DU-145 2.84 µM | EKVX 3.4 µM | UACC-257 2.32 µM | NCI/ADR-RES 2.51 µM | SF-268 2.32 µM | SK-MEL-28 1.83 µM | OVCAR-3 4.02 µM
active: MOLT-4 0.984 µM | SR 0.955 µM | CCRF-CEM 0.528 µM
